Patent publication US11766443B2, “Cyclopentathiophene carboxamide derivatives as platelet activating factor receptor antagonists” (Boehringer Ingelheim International GmbH, priority 2021, dated 2023)
≈ marks a conversion by molar mass, not a printed value.

Key:
[1] = aqueous solubility in buffer (from DMSO stock, 24 h shaking, LC-UV); settings: pH 2.2, aqueous buffer, kinetic from dmso stock
Experimental: The aqueous solubility of the test compound is determined by comparing the amount dissolved in buffer to the amount in an ACN/water (1/1) solution. Starting from a 10 mM DMSO stock solution aliquots are diluted with ACN/water (1/1) or buffer, respectively. After 24 h of shaking, the solutions are filtrated and analyzed by LC-UV. The amount dissolved in buffer is compared to the amount in the ACN solution.
Solubility will usually be measured from 0.001 to 0.125 mg/mL at a DMSO concentration of 2.5%. If more than 90% of the compound is dissolved in buffer, the value is marked with “>”.

human PAFR = molecular target: T1, human PAFR (Homo sapiens, UniProt P25105); experiment: cellular HTRF IP1 endpoint assay: inhibition of PAFR activation by PAF C-16 ligand; type: cell-based; settings: HEK293 cells overexpressing human PAFR; PAF ligand 11 nM
T1 construct: expressed in transfected cells; host or cells: HEK293
Experimental: The ability of compounds of formula (I.0) to inhibit the activation of the PAF receptor (PAFR) by the PAF C-16 ligand (PAF) is determined using the following cellular HTRF IP1 assay (IP1 Gq assay kit from Cisbio, Cat. no.: 62IP1APEJ) in assay buffer (1×HBSS, 20 mM Hepes, pH 7.4, 50 mM LiCl and containing 0.1% (w/v) BSA):
HEK293 cells overexpressing human PAFR (produced in-house) are seeded into a Poly-D-Lysine coated 384 well white cell culture microtiter assay plate with lid (15.000 cells per well). Subsequently, the plates are incubated over night at 37° C./5% CO2. On the next day, cells are being washed and subsequently, various concentrations of the test compounds (compounds in 100% DMSO; final concentration of DMSO in wells is 1%) are added to the assay plate via Echo 555 acoustic liquid handler. Plates are then incubated with lid for 90 minutes at 37° C./5% CO2. Thereafter, PAF ligand (Cayman Chemical Company, Item no.: 60900) is added at a final concentration of 11 nM. Plates are then incubated with lid for 60 minutes at 37° C./5% CO2. Then, 5 μl per well of Anti-IP1-Anti body-Cryptate solution and 5 μL per well of IP1-d2 solution are added to all wells of the plate and the plate is incubated for another 60 minutes light protected at room temperature. The emissions at 620 nm and 665 nm (Excitation wavelength: 320 nm) are measured using an Envision Reader (PerkinElmer).

T1 sequence (P25105 whole entry): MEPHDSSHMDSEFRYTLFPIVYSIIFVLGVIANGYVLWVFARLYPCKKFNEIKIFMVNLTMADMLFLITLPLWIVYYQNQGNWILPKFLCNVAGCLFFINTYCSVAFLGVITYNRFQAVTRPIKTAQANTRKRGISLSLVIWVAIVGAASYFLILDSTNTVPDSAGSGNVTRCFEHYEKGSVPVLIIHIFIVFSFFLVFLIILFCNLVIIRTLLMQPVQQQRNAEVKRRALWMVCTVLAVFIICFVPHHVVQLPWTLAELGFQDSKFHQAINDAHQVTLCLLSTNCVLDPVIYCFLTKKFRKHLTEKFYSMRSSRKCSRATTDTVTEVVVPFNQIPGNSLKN

Cc1nnc2n1-c1sc3c(c1[C@H](c1ccccc1Cl)NC2)C[C@H](C(=O)NCc1ccc(C(F)(F)F)nc1)C3 [Example 7]
solubility at 24 h [1]: 130 µg/mL (≈ 233 µM)
IC50 (human PAFR): 3.6 nM

Cc1nnc2n1-c1sc3c(c1[C@@H](c1ccccc1Cl)NC2)C[C@H](C(=O)NCCOC(F)(F)F)C3 [Example 8]
solubility at 24 h [1]: > 121 µg/mL
IC50 (human PAFR): 55 nM

Cc1nnc2n1-c1sc3c(c1[C@@H](c1ccccc1Cl)NC2)C[C@H](C(=O)NC1CCC1)C3 [Example 9]
solubility at 24 h [1]: > 105 µg/mL
IC50 (human PAFR): 34 nM

Cc1nnc2n1-c1sc3c(c1[C@H](c1ccccc1Cl)NC2)C[C@H](C(=O)NC1(c2ccc(Cl)cn2)CC1)C3 [Example 10]
solubility at 24 h [1]: > 140 µg/mL
IC50 (human PAFR): 1.3 nM

Cc1nnc2n1-c1sc3c(c1[C@@H](c1ccccc1Cl)NC2)C[C@H](C(=O)NCc1ccc(OC(F)F)nc1)C3 [Example 11]
solubility at 24 h [1]: 105 µg/mL (≈ 189 µM)
IC50 (human PAFR): 53 nM

Cc1nnc2n1-c1sc3c(c1[C@H](c1ccccc1Cl)NC2)C[C@H](C(=O)NCc1ccc(OC(F)F)nc1)C3 [Example 12]
solubility at 24 h [1]: > 129 µg/mL
IC50 (human PAFR): 1.9 nM

Cc1nnc2n1-c1sc3c(c1[C@@H](c1ccccc1Cl)NC2)C[C@H](C(=O)NCc1ccc(C(F)(F)F)cc1)C3 [Example 13]
solubility at 24 h [1]: 88 µg/mL (≈ 158 µM)
IC50 (human PAFR): 281 nM

Cc1nnc2n1-c1sc3c(c1[C@H](c1ccccc1Cl)NC2)C[C@H](C(=O)NCc1ccc(C(F)(F)F)cc1)C3 [Example 14]
solubility at 24 h [1]: 109 µg/mL (≈ 195 µM)
IC50 (human PAFR): 0.4 nM

Cc1nnc2n1-c1sc3c(c1[C@H](c1ccccc1Cl)NC2)C[C@H](C(=O)NCC1CC1)C3 [Example 15]
solubility at 24 h [1]: > 113 µg/mL
IC50 (human PAFR): 1.7 nM

Cc1nnc2n1-c1sc3c(c1[C@H](c1ccccc1Cl)NC2)C[C@H](C(=O)N[C@@H]1CCC(F)(F)C1)C3 [Example 16]
solubility at 24 h [1]: > 118 µg/mL
IC50 (human PAFR): 1.4 nM

Cc1nnc2n1-c1sc3c(c1[C@H](c1ccccc1Cl)NC2)C[C@H](C(=O)N1CCC(F)(F)CC1)C3 [Example 18]
solubility at 24 h [1]: > 112 µg/mL
IC50 (human PAFR): 3.1 nM

Cc1nnc2n1-c1sc3c(c1[C@H](c1ccccc1Cl)NC2)C[C@H](C(=O)N[C@@H](C)CF)C3 [Example 20]
solubility at 24 h [1]: > 128 µg/mL
IC50 (human PAFR): 4.5 nM

Cc1nnc2n1-c1sc3c(c1[C@H](c1ccccc1Cl)NC2)C[C@H](C(=O)N1CC2(CCCO2)C1)C3 [Example 22]
solubility at 24 h [1]: > 112 µg/mL
IC50 (human PAFR): 5.3 nM

Cc1nnc2n1-c1sc3c(c1[C@H](c1ccccc1Cl)NC2)C[C@H](C(=O)NC1CCC(F)(F)CC1)C3 [Example 23]
solubility at 24 h [1]: > 114 µg/mL
IC50 (human PAFR): 1.3 nM

Cc1nnc2n1-c1sc3c(c1[C@H](c1ccccc1Cl)NC2)C[C@H](C(=O)N1CC(C)(C)C1)C3 [Example 24]
solubility at 24 h [1]: > 105 µg/mL
IC50 (human PAFR): 2 nM

Cc1noc(C)c1NC(=O)[C@@H]1Cc2sc3c(c2C1)[C@H](c1ccccc1Cl)NCc1nnc(C)n1-3 [Example 25]
solubility at 24 h [1]: > 136 µg/mL
IC50 (human PAFR): 4.3 nM

Cc1nnc2n1-c1sc3c(c1[C@H](c1ccccc1Cl)NC2)C[C@H](C(=O)N1C[C@@H](C)O[C@@H](C)C1)C3 [Example 27]
solubility at 24 h [1]: > 133 µg/mL
IC50 (human PAFR): 5.5 nM

Cc1ncc2n1CCN(C(=O)[C@@H]1Cc3sc4c(c3C1)[C@H](c1ccccc1Cl)NCc1nnc(C)n1-4)C2 [Example 29]
solubility at 24 h [1]: > 110 µg/mL
IC50 (human PAFR): 69 nM

Cc1nnc2n1-c1sc3c(c1[C@H](c1ccccc1Cl)NC2)C[C@H](C(=O)N1CC2(CCOCC2)C1)C3 [Example 30]
solubility at 24 h [1]: 80 µg/mL (≈ 157 µM)
IC50 (human PAFR): 12 nM

Cc1nnc2n1-c1sc3c(c1[C@H](c1ccccc1Cl)NC2)C[C@H](C(=O)NCc1ccccc1)C3 [Example 31]
solubility at 24 h [1]: > 132 µg/mL
IC50 (human PAFR): 1.1 nM

Cc1nnc2n1-c1sc3c(c1[C@H](c1ccccc1Cl)NC2)C[C@H](C(=O)N1CCC1)C3 [Example 32]
solubility at 24 h [1]: > 139 µg/mL
IC50 (human PAFR): 34 nM

Cc1nnc2n1-c1sc3c(c1[C@H](c1ccccc1Cl)NC2)C[C@H](C(=O)NC(C)(C)CO)C3 [Example 33]
solubility at 24 h [1]: > 139 µg/mL
IC50 (human PAFR): 2.8 nM

Cc1nnc2n1-c1sc3c(c1[C@H](c1ccccc1Cl)NC2)C[C@H](C(=O)N(C)Cc1ccccc1)C3 [Example 34]
solubility at 24 h [1]: > 126 µg/mL
IC50 (human PAFR): 2.1 nM

Cc1nnc2n1-c1sc3c(c1[C@H](c1ccccc1Cl)NC2)C[C@H](C(=O)NCc1cccc(C(F)(F)F)n1)C3 [Example 35]
solubility at 24 h [1]: 106 µg/mL (≈ 190 µM)
IC50 (human PAFR): 3.8 nM

Cc1nnc2n1-c1sc3c(c1[C@H](c1ccccc1Cl)NC2)C[C@H](C(=O)NCc1ncccc1C(F)(F)F)C3 [Example 36]
solubility at 24 h [1]: 95 µg/mL (≈ 170 µM)
IC50 (human PAFR): 3 nM

Cc1nnc2n1-c1sc3c(c1[C@H](c1ccccc1Cl)NC2)C[C@H](C(=O)NCc1cc(C(F)(F)F)ccn1)C3 [Example 37]
solubility at 24 h [1]: 100 µg/mL (≈ 179 µM)
IC50 (human PAFR): 2.9 nM

Cc1nnc2n1-c1sc3c(c1[C@H](c1ccccc1Cl)NC2)C[C@H](C(=O)NCc1ccc(C(F)(F)F)cn1)C3 [Example 38]
solubility at 24 h [1]: 108 µg/mL (≈ 193 µM)
IC50 (human PAFR): 1.4 nM

Cc1nnc2n1-c1sc3c(c1[C@H](c1ccccc1Cl)NC2)C[C@H](C(=O)NCc1cscn1)C3 [Example 39]
solubility at 24 h [1]: > 110 µg/mL
IC50 (human PAFR): 60 nM

Cc1nnc2n1-c1sc3c(c1[C@H](c1ccccc1Cl)NC2)C[C@H](C(=O)NCc1nccs1)C3 [Example 40]
solubility at 24 h [1]: > 111 µg/mL
IC50 (human PAFR): 83 nM

COc1ccc(CNC(=O)[C@@H]2Cc3sc4c(c3C2)[C@H](c2ccccc2Cl)NCc2nnc(C)n2-4)cn1 [Example 41]
solubility at 24 h [1]: > 119 µg/mL
IC50 (human PAFR): 11 nM

Cc1nnc2n1-c1sc3c(c1[C@H](c1ccccc1Cl)NC2)C[C@H](C(=O)NCc1cncnc1)C3 [Example 42]
solubility at 24 h [1]: > 121 µg/mL
IC50 (human PAFR): 138 nM

Cc1nnc2n1-c1sc3c(c1[C@H](c1ccccc1Cl)NC2)C[C@H](C(=O)NCc1cncc(C(F)(F)F)c1)C3 [Example 43]
solubility at 24 h [1]: 104 µg/mL (≈ 186 µM)
IC50 (human PAFR): 2.6 nM

Cc1nnc2n1-c1sc3c(c1[C@H](c1ccccc1Cl)NC2)C[C@H](C(=O)NCc1ccnnc1)C3 [Example 44]
solubility at 24 h [1]: > 112 µg/mL
IC50 (human PAFR): 41 nM

Cc1nnc2n1-c1sc3c(c1[C@H](c1ccccc1Cl)NC2)C[C@H](C(=O)NCc1ccnc(C(F)(F)F)c1)C3 [Example 45]
solubility at 24 h [1]: > 140 µg/mL
IC50 (human PAFR): 1.9 nM

Cc1nnc2n1-c1sc3c(c1[C@H](c1ccccc1Cl)NC2)C[C@H](C(=O)NCc1cnc(C(F)(F)F)nc1)C3 [Example 46]
solubility at 24 h [1]: 112 µg/mL (≈ 200 µM)
IC50 (human PAFR): 6.3 nM

Cc1ncc(CNC(=O)[C@@H]2Cc3sc4c(c3C2)[C@H](c2ccccc2Cl)NCc2nnc(C)n2-4)s1 [Example 47]
solubility at 24 h [1]: > 115 µg/mL
IC50 (human PAFR): 12 nM

Cc1ncsc1CNC(=O)[C@@H]1Cc2sc3c(c2C1)[C@H](c1ccccc1Cl)NCc1nnc(C)n1-3 [Example 48]
solubility at 24 h [1]: > 128 µg/mL
IC50 (human PAFR): 15 nM

Cc1nnc2n1-c1sc3c(c1[C@H](c1ccccc1Cl)NC2)C[C@H](C(=O)NCc1ccc(Cl)cn1)C3 [Example 49]
solubility at 24 h [1]: 101 µg/mL (≈ 192 µM)
IC50 (human PAFR): 1.9 nM

CCC12CC(NC(=O)[C@@H]3Cc4sc5c(c4C3)[C@H](c3ccccc3Cl)NCc3nnc(C)n3-5)(C1)C2 [Example 50]
solubility at 24 h [1]: 98 µg/mL (≈ 198 µM)
IC50 (human PAFR): 0.5 nM

Cc1nnc2n1-c1sc3c(c1[C@H](c1ccccc1Cl)NC2)C[C@H](C(=O)NC12CC(C1)C2)C3 [Example 51]
solubility at 24 h [1]: > 116 µg/mL
IC50 (human PAFR): 2.2 nM
